Laboratory results published in patent publication US20150126368A1, “METHOD OF PROVIDING PLANT WITH STRESS RESISTANCE” (Nippon Soda Co., Ltd., priority 2012, published 2015).
Read-outs that look alike come from different tables or passages of the source.

Legend:
Type in all cases: in vivo
[1] = tested on: Eggplant (breed: Senryo 2 gou); experiment: Evaluation test for relief effects of low temperature injury on eggplant; conditions: 13° C. daylight/8° C. dark, 15 days after spray
Description: Eggplant (breed: Senryo 2 gou, 3 reprications) grown up to the 4 to 6 leaf stage in a greenhouse was prepared.
A water dispersible granule of 30% ascorbyl palmitate and pyraclostrobin dissolved to 40% with N,N-dimethylformamide were diluted with tap water to a concentration described in Table 6, and the diluted solution was sprayed over the whole nursery plants in a sufficient amount. After air dried, they were allowed to grow for 1 day under conditions of 16 hours under a daylight condition at 18° C. and 8 hours under a dark condition at 13° C., and then allowed to grow under conditions of 16 hours under a daylight condition at 13° C. and 8 hours under a dark condition at 8° C. A degree of disorder was investigated at the elapsed time of 15 days after the spray treatment.
Disorders were evaluated by 4 levels of disorder indices of 0 (no color change), 1 (discolored up to ¼ of the whole), 2 (discolored up to ½ of the whole), 3 (discolored at ½ or more of the whole) with reference to the area of a discolored portion in an expanded leaf after treatment.
(§1) Injury relief percentage=((disorder index of untreated region)−(disorder index of each treated region))/(disorder index of untreated region)×100

Tomato (breed: Reiyo) = experiment: Evaluation test for relief effects of low temperature injury on tomato; conditions: one night outside at average 0.5° C.
Description: Tomato (breed: Reiyo, 4 reprications) grown up to the 3.5 leaf stage in a greenhouse was prepared.
A water dispersible granule of 30% ascorbyl palmitate and pyraclostrobin dissolved to 40% with N,N-dimethylformamide were diluted with tap water to a concentration described in Table 7, and the diluted solution was sprayed over the whole nursery plants in a sufficient amount. After air dried, they were transferred to the outside of the greenhouse at an average temperature of 0.5° C. during night to investigate a degree of low temperature injury on the next morning.
Disorders were evaluated by 5 levels of disorder indices of 0 (no disorder) to 4 (complete withering). From this, disorder relief percentages were computed by the following formula.
Low temperature injury relief percentage=(disorder index of untreated region)−(disorder index of each treatment region)/(disorder index of untreated region)×100

Tomato (breed: Reiryo) = experiment: Evaluation test for relief effects of strong light injury on tomato; conditions: summer blazing sun, 4 days after spraying
Description: Tomato (breed: Reiryo, 2 reprications) grown up to the two leaf stage in a greenhouse was prepared.
A water dispersible granule of 30% of ascorbyl palmitate and pyraclostrobin dissolved to 40% N,N-dimethylformamide were diluted with tap water to each of the concentrations described in Table 9, and the diluted solution was sprayed over the whole nursery plants in a sufficient amount. After air dried, they were exposed to strong light under summer blazing sun. A degree of disorder was investigated at the elapsed time of 4 days after the spraying.
For disorder, a degree of necrosis due to light effects was evaluated by 11 levels of disorder indices from 0 (no necrosis) to 10 (withering to death). From this, disorder relief percentages were computed by the following formula.
as §1

[2] = tested on: Cucumber (breed: Sagamihanjirohushinari); experiment: Evaluation test for relief effects of submergence disorder on cucumber; conditions: flood from 2 days, raw weight 11 days after spray
Description: Cucumber (breed: Sagamihanjirohushinari, 2 reprications) grown up to the two leaf stage in a greenhouse was prepared.
(§2) A water dispersible granule of 30% ascorbyl palmitate and pyraclostrobin adjusted to 40% with N,N-dimethylformamide were diluted with tap water to a predetermined concentration, and the diluted solution was sprayed in a sufficient amount. They were subjected to flood conditions up to immediately below the cotyledon from 2 days after the spray treatment, and the raw weights of an above ground part and a root part of cucumber were each measured at the elapsed time of 11 days after the spray treatment. From this, injury relief percentages were computed by the following formula.
(§3) Flood injury relief percentage=((raw weight of each treatment region)−(raw weight of untreated region))/(raw weight of untreated region)×100

Soybean (breed: Enrei) [3] = experiment: Evaluation test for relief effects of flood injury on soybean; conditions: flood from 2 days, raw weight 11 days after spray
Description: Soybean (breed: Enrei, 2 reprications) grown up to the two leaf stage in a greenhouse was prepared.
as §2, with “soybean” for “cucumber”
as §3

[4] = tested on: Cucumber (breed: Sagamihanjirohushinari); experiment: Evaluation test for relief effects of acidity problem on cucumber; conditions: hydroponic medium pH 4 from 2 days, leaf stage 17 days after spray
Description: Cucumber (breed: Sagamihanjirohushinari, 2 reprications) hydroponically grown up to the two leaf stage in a 100 ml flask was prepared.
A water dispersible granule of 30% ascorbic acid palmitate and pyraclostrobin adjusted to 40% with N,N-dimethylformamide were diluted with tap water to a predetermined concentration, and the diluted solution was sprayed over the whole nursery plants in a sufficient amount. The water culture medium was adjusted to pH 4 with 1 N hydrochloric acid at the elapsed time of 2 days after the spray treatment, and the above cucumber was continuously allowed to grow hydroponically. Leaf stage of the cucumber was investigated 17 days after the spray treatment. From this, disorder relief percentages were computed by the following formula.
Acidity problem relief percentage=((leaf stage of each treatment region)−(leaf stage of untreated region))/(leaf stage of untreated region)×100

[5] = tested on: Cucumber (breed: Sagamihanjirohushinari); experiment: Evaluation test for relief effects of salt injury on cucumber; conditions: 0.1% aqueous sodium chloride from 2 days, raw weight 11 days after spray
Description: Cucumber (breed: Sagamihanjirohushinari, 2 reprications) hydroponically grown up to the two leaf stage in a greenhouse was prepared.
(§4) A water dispersible granule of 30% ascorbic acid palmitate and pyraclostrobin adjusted to 40% with N,N-dimethylformamide were diluted with tap water to a predetermined concentration, and the diluted solution was sprayed over the whole nursery plants in a sufficient amount. After air dried, they were cultivated with normal irrigation in a greenhouse. Then, the irrigation conditions were changed to 0.1% aqueous sodium chloride solution in 2 cm depth from 2 days after the spraying, and cultivated up to 11 days after the spray treatment. Then the raw weights of an aerial part and a root part were each measured. From this, injury relief percentages were computed by the following formula.
(§5) Salt injury relief percentage=((raw weight of each treatment region)−(raw weight of untreated region))/(raw weight of untreated region)×100

Soybean (breed: Enrei) [6] = experiment: Evaluation test for relief effects of salt injury on soybean; conditions: 0.1% aqueous sodium chloride from 2 days, raw weight 11 days after spray
Description: Soybean (breed: Enrei, 2 reprications) hydroponically grown up to the two leaf stage in a greenhouse was prepared.
as §4, §5

Pyricularia oryzae = conditions: 11 days after inoculation
[7] = Pyraclostrobin 5 ppm spray on rice (Koshihikari) one day before inoculation
[8] = ascorbyl palmitate 1000 ppm spray
[9] = ascorbyl palmitate 50 ppm spray on rice (Koshihikari) one day before inoculation

## COC(=O)N(OC)c1ccccc1COc1ccn(-c2ccc(Cl)cc2)n1 [Pyraclostrobin, reference compound]
[1]; Pyraclostrobin 50 ppm spray
  relief percents of low-temperature injury(%): 13.0%
Tomato (breed: Reiyo); Pyraclostrobin 50 ppm spray
  relief percents of low-temperature injury(%): 25%
Tomato (breed: Reiryo); Pyraclostrobin 50 ppm spray
  relief percents of strong light injury (%): 40%
[2]; Pyraclostrobin 50 ppm spray
  relief percents of flood injury in aerial part(%): 61.7%
  relief percents of flood injury in root(%): 39.0%
Soybean (breed: Enrei) [3]; Pyraclostrobin 50 ppm spray
  relief percents of flood injury in aerial part(%): 0.0%
  relief percents of flood injury in root(%): 3.2%
[4]; Pyraclostrobin 50 ppm spray
  relief percents of acidity problem(%): 15.6%
[5]; Pyraclostrobin 50 ppm spray
  relief percents of salt injury in aerial part(%): 45.6%
  relief percents of salt injury in root(%): 20.0%
Soybean (breed: Enrei) [6]; Pyraclostrobin 50 ppm spray
  relief percents of salt injury in aerial part(%): 3.2%
  relief percents of salt injury in root(%): 2.5%
Pyricularia oryzae; [7]
  Number of lesion spots: 10
  Preventive value(%): 70%

## CCCCCCCCCCCCCCCC(=O)OC[C@H](O)[C@H]1OC(=O)C(O)=C1O [ascorbyl palmitate]
[1]; [8]
  relief percents of low-temperature injury(%): 13.0%
Tomato (breed: Reiyo); ascorbyl palmitate 500 ppm spray
  relief percents of low-temperature injury(%): 100%
Tomato (breed: Reiryo); [8]
  relief percents of strong light injury (%): 50%
[2]; [8]
  relief percents of flood injury in aerial part(%): 31.9%
  relief percents of flood injury in root(%): 41.5%
Soybean (breed: Enrei) [3]; [8]
  relief percents of flood injury in aerial part(%): 2.8%
  relief percents of flood injury in root(%): 20.4%
[4]; [8]
  relief percents of acidity problem(%): 15.6%
[5]; [8]
  relief percents of salt injury in aerial part(%): 8.8%
  relief percents of salt injury in root(%): 16.0%
Soybean (breed: Enrei) [6]; [8]
  relief percents of salt injury in aerial part(%): 20.4%
  relief percents of salt injury in root(%): 22.2%
Pyricularia oryzae; [9]
  Number of lesion spots: 30
  Preventive value(%): 9%
